pIC50: −log10 of the molar value.

The target of the experiment is T1, HGFR (His6-HGFR cytoplasmic domain) (Homo sapiens, UniProt P08581).
T1 construct: made in house; host or cells: Spodoptera frugiperda Sf9 insect cells (baculovirus, pFastBac-HT)
Kind of experiment: Inhibitory activity against HGFR tyrosine kinase activity (HTRF). It is filed as biochemical. The note with it: biotin-poly(GT), ATP, 30° C. 10 min, read-out: IC50 (concentration necessary to inhibit HGFR kinase activity by 50%). From the text:
The cytoplasmic domain of HGFR (Genbank Accession No. J02958) is a 1.3 kb DNA fragment beginning with Lys974 and including a stop codon, and described by Park et al. (Proc. Natl. Acad. Sci. U.S.A. 84(18), 6379-6383, 1987). The DNA fragment was isolated from the human placental cDNA library (purchased from Clontech) by PCR (TaKaRa Ex Taq™ Kit, purchased from TaKaRa) using two kinds of primers (SEQ ID NO: 1, 5′-[…]-3′ and SEQ ID NO: 2, 5′-[…]-3′, purchased from Invitrogen). The DNA fragment was cloned into a baculovirus transplace vector (pFastBac™-HT (purchased from GIBCO BRL)) to produce a recombinant construct. The construct was transfected into insect cells (Spodoptera frugiperda 9 (Sf9)) to produce a solution of HGFR transfected baculovirus (preparation of a recombinant baculovirus can be found in the standard text (Bac-to-Bac Baculovirus Expression System (GIBCO BRL)). The cloning of the other receptor tyrosine kinases and preparation of the recombinant baculovirus solutions were performed using a cytoplasmic fragment starting from Lys791 (VEGFR2, Genbank Accession No. L04947), a cytoplasmic fragment starting from Lys398 (FGFR1, Genbank Accession No. X52833) and a cytoplasmic fragment starting from Lys558 (PDGFRβ, Genbank Accession No. M21616) in stead of HGFR in the above method. EGFR was purchased from Sigma (Production No. E-2645).
To the suspension of Sf9 cells (3×10^8 cells) in SF-900II medium (purchased from Invitrogen) containing 2% FBS was added a solution of HGFR transfected baculovirus above (4 ml), followed by a shaking culture at 27° C. for 48 hrs. The cells infected with the HGFR transfected baculovirus were centrifuged at 1,000 rpm, 4° C. for 5 min to remove the supernatant. The precipitated infected cells were suspended in 80 ml of ice-cold PBS, and centrifuged at 1,000 rpm, 4° C. for 5 min to remove the supernatant. The precipitated infected cells were suspended in 40 ml of ice-cold Lysis Buffer (50 mM Tris-HCl (pH 8.5), 5 mM 2-mercaptoethanol, 100 mM KCl, 1 mM PMSF and 1% (v/v) NP-40). The suspension was centrifuged at 12,000 rpm, 4° C. for 30 min to provide a supernatant.
The supernatant was loaded onto an Ni-NTA agarose column (3 ml, purchased from Qiagen) equilibrated with 30 ml of Buffer A (20 mM Tris-HCl (pH 8.5), 5 mM 2-mercaptoethanol, 500 mM KCl, 20 mM imidazole and 10% (v/v) glycerol). The column was washed with 30 ml of Buffer A, 6 ml of Buffer B (20 mM Tris-HCl (pH 8.5), 5 mM 2-mercaptoethanol, 1 M KCl, and 10% (v/v) glycerol) and 6 ml of Buffer A in this order. Then, the column was eluted with 6 ml of Buffer C (20 mM Tris-HCl (pH 8.5), 5 mM 2-mercaptoethanol, 100 mM KCl, 100 mM imidazole, and 10% (v/v) glycerol) to provide a fraction. The fraction was entrapped in a dialysis membrane (purchased from Spectrum Laboratories), dialyzed at 4° C. overnight with 1 L of dialysis buffer (20 mM Tris-HCl (pH 7.5), 10% (v/v) glycerol, 1 mM dithiothreitol, 0.1 mM Na3VO4 and 0.1 mM EGTA), and stored at −80° C. until used. An aliquot of the dialyzed fraction was subjected to SDS electrophoresis, and then a recombinant protein (His6-HGFR, the HGFR cytoplasmic domain fused with six histidine at the N terminus) detected at a molecular weight of about 60 kDa when stained with Coomassie Brilliant Blue, was determined with regard to protein content using BSA (purchased from Sigma) as a standard. The VEGFR2 cytoplasmic domain, the FGFR1 cytoplasmic domain, and the PDGFRβ cytoplasmic domain were fused with six histidine at the N terminus by the similar method to produce respective recombinant proteins (His6-VEGFR2, His6-FGFR1, and His6-PDGFRβ). […]

T1 sequence (P08581 956-1390 limits assumed): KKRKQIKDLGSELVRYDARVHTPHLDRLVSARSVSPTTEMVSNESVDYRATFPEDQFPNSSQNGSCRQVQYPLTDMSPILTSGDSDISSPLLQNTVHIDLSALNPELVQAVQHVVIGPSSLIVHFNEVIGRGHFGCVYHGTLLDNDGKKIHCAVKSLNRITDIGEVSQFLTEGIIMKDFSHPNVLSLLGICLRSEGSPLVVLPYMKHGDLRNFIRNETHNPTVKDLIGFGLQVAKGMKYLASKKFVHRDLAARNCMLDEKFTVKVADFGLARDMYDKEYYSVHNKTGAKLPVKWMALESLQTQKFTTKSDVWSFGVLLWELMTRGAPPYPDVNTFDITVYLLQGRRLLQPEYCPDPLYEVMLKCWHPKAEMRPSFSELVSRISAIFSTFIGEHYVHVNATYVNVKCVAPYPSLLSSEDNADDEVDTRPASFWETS

As to `CN1CC(N2CCN(C(=O)Nc3cc(Oc4ccc(NC(=S)NC(=O)Cc5ccc(F)cc5)cc4)ccn3)CC2)C1` [Example 337, 4-(1-Methylazetidin-3-yl)piperazine-1-carboxylic acid [4-(4-{3-[2-(4-fluorophenyl)acetyl]thioureido}phenoxy)pyridin-2-yl]amide], the pIC50 was 6.82. Take `O=C(CC(=O)Nc1ccc(Oc2ccnc(NC(=O)N3CCCCC3)c2)cc1Cl)Nc1ccc(F)cc1` [Example 65, N-(2-Chloro-4-{2-[(piperidine-1-carbonyl)amino]pyridin-4-yloxy}phenyl)-N′-(4-fluorophenyl)malonamide]: the pIC50 is 7.06. Regarding `O=C(Cc1ccc(F)cc1)NC(=S)Nc1ccc(Oc2ccnc(NC(=O)N3CCC(N4CCC(O)CC4)CC3)c2)cc1` [Example 190, 2-{[4-(4-Hydroxypiperidin-1-yl)piperidin-1-yl]carbonylamino}-4-(4-{3-[2-(4-fluorophenyl)acetyl]thioureido}phenoxy)pyridine], the pIC50 is 7.22.

For the molecule `O=C(CC(=O)Nc1ccc(F)cc1F)Nc1ccc(Oc2ccnc(NC(=O)N3CCCC3)c2)c(F)c1` [Example 57, N-(3-Fluoro-4-{2-[(pyrrolidine-1-carbonyl)amino]pyridin-4-yloxy}phenyl)-N′-(2,4-difluorophenyl)malonamide], the pIC50 is 7.32. As to `CN1CCN(C2CCN(C(=O)Nc3cc(Oc4ccc(NC(=O)NC(=O)Cc5ccc(F)cc5)cc4F)ccn3)CC2)CC1` [Example 343, 4-(2-Fluoro-4-{3-[2-(4-fluorophenyl)acetyl]ureido}phenoxy)-2-{[4-(1-methylpiperazin-4-yl)piperidin-1-yl]carbonylamino}pyridine], the pIC50 is 6.92.

With `CN1CCN(C2CCN(C(=O)Nc3cc(Oc4ccc(NC(=S)NC(=O)Cc5ccc(F)cc5)cc4)ccn3)CC2)CC1` [Example 191, 4-(4-{3-[2-(4-Fluorophenyl)acetyl]thioureido}phenoxy)-2-{[4-(1-methylpiperazin-4-yl)piperidin-1-yl]carbonylamino}pyridine], the pIC50 was 7.24. Regarding `CN(C)C1CN(C(=O)Nc2cc(Oc3ccc(NC(=S)NC(=O)Cc4ccc(F)cc4)cc3F)ncn2)C1` [Example 208, 3-Dimethylaminoazetidine-1-carboxylic acid [6-(2-fluoro-4-{3-[2-(4-fluorophenyl)acetyl]thioureido}phenoxy)pyrimidin-4-yl]amide], the pIC50 is 7.30. In the case of `CN1CCN(CCCN(C)C(=O)Nc2cc(Oc3ccc(NC(=O)CC(=O)Nc4ccc(F)cc4)c(F)c3)ccn2)CC1` [Example 93, N-[2-Fluoro-4-(2-{3-methyl-3-[3-(4-methylpiperazin-1-yl)propyl]ureido}pyridin-4-yloxy)phenyl]-N′-(4-fluorophenyl)malonamide] it was 7.03; in that of `CN(C)C1CN(C2CCN(C(=O)Nc3cc(Oc4ccc(NC(=S)NC(=O)Cc5ccc(F)cc5)c(F)c4)ccn3)CC2)C1` [Example 189, 4-[3-(Dimethylamino)azetidin-1-yl]piperidine-1-carboxylic acid [4-(3-fluoro-4-{3-[2-(4-fluorophenyl)acetyl]thioureido}phenoxy)pyridin-2-yl]amide], 6.96; in that of `CN(C)C[C@@H]1CCCN(C(=O)Nc2cc(Oc3ccc(NC(=S)NC(=O)Cc4ccccc4)cc3F)ccn2)C1` [Example 335, (3S)-3-Dimethylaminomethylpiperidine-1-carboxylic acid {4-[2-fluoro-4-(3-phenylacetylthioureido)phenoxy]pyridin-2-yl}amide], 6.96. In the case of `O=C(CC(=O)Nc1c(F)cccc1F)Nc1ccc(Oc2ccnc(NC(=O)N3CCCC3)c2)c(F)c1` [Example 59, N-(2,6-Difluorophenyl)-N′-(3-fluoro-4-{2-[(pyrrolidine-1-carbonyl)amino]pyridin-4-yloxy}phenyl)malonamide] it was 7.00; in that of `CN1CCC(N2CCN(C(=O)Nc3cc(Oc4ccc(NC(=O)NC(=O)Cc5ccccc5)cc4F)ccn3)CC2)CC1` [Example 341, 4-{2-Fluoro-4-[3-(2-phenylacetyl)ureido]phenoxy}-2-{[4-(1-methylpiperidin-4-yl)piperazin-1-yl]carbonylamino}pyridine], 7.00. In the case of `CN1CCC(N(C)C(=O)Nc2cc(Oc3ccc(NC(=O)NC(=O)Cc4ccc(F)cc4)c(F)c3)ccn2)CC1` [Example 290, 3-[4-(3-Fluoro-4-{3-[2-(4-fluorophenyl)acetyl]ureido}phenoxy)pyridin-2-yl]-1-methyl-1-(1-methylpiperidin-4-yl)urea] it was 6.89; in that of `O=C(Cc1ccccc1)NC(=S)Nc1ccc(Oc2ccnc(NC(=O)N3CCC(CN4CCC4)CC3)c2)c(F)c1` [Example 395, 4-(Azetidin-1-ylmethyl)piperidine-1-carboxylic acid {4-[2-fluoro-4-(3-phenylacetylthioureido)phenoxy]pyridin-2-yl}amide], 7.33; in that of `CN(C(=O)Nc1cc(Oc2ccc(NC(=S)NC(=O)Cc3ccc(F)cc3)cc2F)ncn1)C1CCOCC1` [Example 288, 3-[6-(2-Fluoro-4-{3-[2-(4-fluorophenyl)acetyl]thioureido}phenoxy)pyrimidin-4-yl]-1-methyl-1-(tetrahydropyran-4-yl)urea], 7.80. For the molecule `CN(C)CCN1CCC(N(C)C(=O)Nc2cc(Oc3ccc(NC(=O)NC(=O)Cc4ccccc4)cc3F)ccn2)CC1` [Example 353, 1-[1-(2-Dimethylaminoethyl)piperidin-4-yl]-3-{4-[2-fluoro-4-(3-phenylacetylureido)phenoxy]pyridin-2-yl}-1-methylurea], the pIC50 was 6.74. As for `CN1CC(N2CCC(N(C)C(=O)Nc3cc(Oc4ccc(NC(=S)NC(=O)Cc5ccc(F)cc5)cc4)ccn3)CC2)C1` [Example 331, 3-(4-{4-[3-(4-Fluorophenyl)acetylthioureido]phenoxy}pyridin-2-yl)-1-methyl-1-[1-(1-methylazetidin-3-yl)piperidin-4-yl]urea], the pIC50 was 7.08. As for `O=C(Cc1ccccc1)NC(=S)Nc1ccc(Oc2ccnc(NC(=O)N3CCC(N4CCOCC4)CC3)c2)c(F)c1` [Example 258, 4-{2-Fluoro-4-[3-(2-phenylacetyl)thioureido]phenoxy}-2-{[4-(morpholin-4-yl)piperidin-1-yl]carbonylamino}pyridine], the pIC50 was 7.00.

Regarding `CN(C)CCN1CCC(N(C)C(=O)Nc2cc(Oc3ccc(NC(=S)NC(=O)Cc4ccc(F)cc4)cc3)ccn2)CC1` [Example 194, 1-[1-(2-Dimethylaminoethyl)piperidin-4-yl]-3-[4-(4-{3-[2-(4-fluorophenyl)acetyl]thioureido}phenoxy)pyridin-2-yl]-1-methylurea], the pIC50 is 7.21.

For the molecule `CN(C)C[C@@H]1CCN(C(=O)Nc2cc(Oc3ccc(NC(=S)NC(=O)Cc4ccc(F)cc4)c(F)c3)ccn2)C1` [Example 219, (3S)-3-Dimethylaminomethylpyrrolidine-1-carboxylic acid [4-(3-fluoro-4-{3-[2-(4-fluorophenyl)acetyl]thioureido}phenoxy)pyridin-2-yl]amide], the pIC50 is 7.38.

In the case of `CN(C)C(=O)Nc1cc(Oc2ccc(NC(=O)CC(=O)Nc3ccc(F)cc3)c(F)c2)ccn1` [Example 84, N-{4-[2-(3,3-Dimethylureido)pyridin-4-yloxy]-2-fluorophenyl}-N′-(4-fluorophenyl)malonamide], the pIC50 is 7.92.

Source of the values: patent US20070270421A1, “Novel pyridine Derivative and Pyrimidine Derivative (1)” (priority 2004, published 2007).
